Converted amounts (≈) assume the structure as drawn. Values belong to the compound of their own block, whether it stands above or below them. The source made the active and inactive calls. The rule behind the calls is not given here.
Experiments:
[1] = target: T1, High affinity cAMP-specific and IBMX-insensitive 3',5'-cyclic phosphodiesterase 8A (Homo sapiens, UniProt O60658); experiment: Inhibition of PDE8A1 (480 to 820 residues) (unknown origin) expressed in Escherichia coli BL21 using [3H]-cAMP substrate at 1 uM incubated for 15 mins by liquid scintillation counting method relative to control
T1 sequence (O60658 whole entry, the tested form may be a part): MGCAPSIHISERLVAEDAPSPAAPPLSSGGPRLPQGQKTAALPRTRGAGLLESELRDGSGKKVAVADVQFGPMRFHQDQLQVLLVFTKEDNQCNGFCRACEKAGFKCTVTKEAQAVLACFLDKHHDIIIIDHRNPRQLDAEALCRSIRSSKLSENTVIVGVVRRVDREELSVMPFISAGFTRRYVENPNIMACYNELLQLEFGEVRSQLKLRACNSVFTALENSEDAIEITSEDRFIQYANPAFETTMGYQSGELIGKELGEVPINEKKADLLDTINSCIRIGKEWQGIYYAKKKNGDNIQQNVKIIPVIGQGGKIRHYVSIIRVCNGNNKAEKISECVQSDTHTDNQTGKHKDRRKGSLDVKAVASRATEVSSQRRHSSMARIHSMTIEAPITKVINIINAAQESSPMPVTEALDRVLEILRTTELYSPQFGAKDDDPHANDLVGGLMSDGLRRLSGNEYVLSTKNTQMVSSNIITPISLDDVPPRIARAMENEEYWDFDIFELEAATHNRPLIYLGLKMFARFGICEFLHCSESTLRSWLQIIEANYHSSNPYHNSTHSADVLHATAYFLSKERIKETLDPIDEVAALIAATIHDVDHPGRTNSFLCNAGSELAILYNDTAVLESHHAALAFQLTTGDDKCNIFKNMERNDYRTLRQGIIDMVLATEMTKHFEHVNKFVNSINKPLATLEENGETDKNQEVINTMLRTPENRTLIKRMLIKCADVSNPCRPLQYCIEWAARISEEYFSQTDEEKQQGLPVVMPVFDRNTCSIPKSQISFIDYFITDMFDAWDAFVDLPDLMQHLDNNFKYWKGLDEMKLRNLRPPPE

[2] = Tmax in Sprague-Dawley rat at 10 mg/kg, po measured upto 24 hrs by LC-MS/MS analysis; format: ADME, organism-based; details: in vivo
[3] = Half life in Sprague-Dawley rat at 2.5 mg/kg, iv measured upto 24 hrs by LC-MS/MS analysis; format: ADME, organism-based; details: in vivo
[4] = target: High affinity 3',5'-cyclic-AMP phosphodiesterase 7A (Homo sapiens, UniProt Q13946); experiment: Inhibition of PDE7A1 (130-482 residues) (unknown origin) expressed in Escherichia coli BL21 using [3H]-cAMP substrate incubated for 15 mins by liquid scintillation counting method
Sequence of High affinity 3',5'-cyclic-AMP phosphodiesterase 7A (Q13946 whole entry, the tested form may be a part): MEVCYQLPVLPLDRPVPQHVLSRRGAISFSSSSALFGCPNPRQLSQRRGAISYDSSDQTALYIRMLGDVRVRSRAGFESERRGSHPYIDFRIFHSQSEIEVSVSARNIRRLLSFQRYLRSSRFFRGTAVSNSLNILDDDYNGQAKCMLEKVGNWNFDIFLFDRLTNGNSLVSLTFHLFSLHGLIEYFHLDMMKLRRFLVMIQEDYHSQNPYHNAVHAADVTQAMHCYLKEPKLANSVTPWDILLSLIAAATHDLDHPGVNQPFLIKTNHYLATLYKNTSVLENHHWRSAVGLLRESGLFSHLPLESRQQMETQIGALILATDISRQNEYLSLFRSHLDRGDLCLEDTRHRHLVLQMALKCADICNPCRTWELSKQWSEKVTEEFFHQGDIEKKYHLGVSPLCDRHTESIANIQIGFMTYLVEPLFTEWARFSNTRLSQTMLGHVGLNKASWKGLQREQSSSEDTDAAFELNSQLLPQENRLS

Cytochrome P450 2C9 = Cytochrome P450 2C9 (Homo sapiens, UniProt P11712); experiment: Inhibition of CYP2C9 in human liver microsomes in presence of NADPH; format: ADME
[5] = Cmax in Sprague-Dawley rat at 10 mg/kg, po measured upto 24 hrs by LC-MS/MS analysis; format: ADME, organism-based; parameters: route oral, dose 10 mg/kg, time <=24; details: in vivo
[6] = target: Dual specificity calcium/calmodulin-dependent 3',5'-cyclic nucleotide phosphodiesterase 1B (Homo sapiens, UniProt Q01064); experiment: Inhibition of PDE1B (146-506 residues) (unknown origin) expressed in Escherichia coli BL21 using [3H]-cAMP substrate incubated for 15 mins by liquid scintillation counting method
[7] = Cmax in Sprague-Dawley rat at 2.5 mg/kg, iv measured upto 24 hrs by LC-MS/MS analysis; format: ADME, organism-based; parameters: route intravenous, dose 2.5 mg/kg, time <=24; details: in vivo
[8] = Half life in Sprague-Dawley rat at 10 mg/kg, po measured upto 24 hrs by LC-MS/MS analysis; format: ADME, organism-based; details: in vivo
[9] = Oral bioavailability in Sprague-Dawley rat at 10 mg/kg measured upto 24 hrs by LC-MS/MS analysis; format: ADME, organism-based; details: in vivo
[10] = AUC (0 to t) in Sprague-Dawley rat at 2.5 mg/kg, iv measured upto 24 hrs by LC-MS/MS analysis; format: ADME, organism-based; parameters: route intravenous, dose 2.5 mg/kg, time <=24; details: in vivo
[11] = Lipophilicity, log P of the compound; format: physicochemical; details: octanol/water
Cytochrome P450 2C19 = Cytochrome P450 2C19 (Homo sapiens, UniProt P33261); experiment: Inhibition of CYP2C19 in human liver microsomes in presence of NADPH; format: ADME
Mus musculus [12] = experiment: Anti-VaD activity against UCCAO-induced spatial memory deficient C57BL/6J mouse model assessed as improvement in spatial learning and memory by measuring increased the residence time in the platform area at 3 mg/kg, po administered for 21 days by Morris water maze test; format: functional, organism-based; details: time 21.0 day
Cytochrome P450 3A4 = Cytochrome P450 3A4 (Homo sapiens, UniProt P08684); experiment: Inhibition of CYP3A4 in human liver microsomes using midazolam as substrate in presence of NADPH; format: ADME
Sequence of Cytochrome P450 3A4 (P08684 whole entry, the tested form may be a part): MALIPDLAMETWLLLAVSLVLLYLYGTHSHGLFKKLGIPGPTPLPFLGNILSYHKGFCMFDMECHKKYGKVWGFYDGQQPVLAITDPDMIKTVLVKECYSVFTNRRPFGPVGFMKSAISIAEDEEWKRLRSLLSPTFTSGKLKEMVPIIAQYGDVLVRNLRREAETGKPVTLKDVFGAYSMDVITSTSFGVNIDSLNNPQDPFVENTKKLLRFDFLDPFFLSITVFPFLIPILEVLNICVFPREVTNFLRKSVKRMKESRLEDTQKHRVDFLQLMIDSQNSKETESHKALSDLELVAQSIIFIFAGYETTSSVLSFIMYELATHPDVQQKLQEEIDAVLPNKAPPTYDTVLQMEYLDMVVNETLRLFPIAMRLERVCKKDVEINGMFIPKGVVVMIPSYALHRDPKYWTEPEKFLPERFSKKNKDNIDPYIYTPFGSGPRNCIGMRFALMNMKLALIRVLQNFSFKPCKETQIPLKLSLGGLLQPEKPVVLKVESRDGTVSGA

[13] = target: High affinity cGMP-specific 3',5'-cyclic phosphodiesterase 9A (Homo sapiens, UniProt O76083); experiment: Inhibition of PDE9A2 (181-506 residues) (unknown origin) expressed in Escherichia coli BL21 using [3H]-cAMP substrate incubated for 15 mins by liquid scintillation counting method
Sequence of High affinity cGMP-specific 3',5'-cyclic phosphodiesterase 9A (O76083 whole entry, the tested form may be a part): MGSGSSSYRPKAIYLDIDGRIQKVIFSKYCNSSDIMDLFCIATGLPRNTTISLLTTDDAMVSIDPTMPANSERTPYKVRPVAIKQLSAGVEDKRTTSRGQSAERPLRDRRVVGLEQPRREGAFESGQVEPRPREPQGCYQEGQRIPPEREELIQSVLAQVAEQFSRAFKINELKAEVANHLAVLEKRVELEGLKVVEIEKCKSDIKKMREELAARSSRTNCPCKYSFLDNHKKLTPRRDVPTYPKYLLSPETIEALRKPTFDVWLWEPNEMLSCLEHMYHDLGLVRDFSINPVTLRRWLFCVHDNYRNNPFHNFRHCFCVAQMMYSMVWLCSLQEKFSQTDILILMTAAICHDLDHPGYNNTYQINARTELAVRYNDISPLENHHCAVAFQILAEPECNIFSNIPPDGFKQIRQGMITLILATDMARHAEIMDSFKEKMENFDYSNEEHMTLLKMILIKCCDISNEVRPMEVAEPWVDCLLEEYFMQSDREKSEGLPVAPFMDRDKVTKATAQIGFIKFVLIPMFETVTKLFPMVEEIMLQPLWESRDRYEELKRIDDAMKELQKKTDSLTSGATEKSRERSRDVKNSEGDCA

Cytochrome P450 2D6 = Cytochrome P450 2D6 (Homo sapiens, UniProt P10635); experiment: Inhibition of CYP2D6 in human liver microsomes in presence of NADPH; format: ADME
Sequence of Cytochrome P450 2D6 (P10635 whole entry): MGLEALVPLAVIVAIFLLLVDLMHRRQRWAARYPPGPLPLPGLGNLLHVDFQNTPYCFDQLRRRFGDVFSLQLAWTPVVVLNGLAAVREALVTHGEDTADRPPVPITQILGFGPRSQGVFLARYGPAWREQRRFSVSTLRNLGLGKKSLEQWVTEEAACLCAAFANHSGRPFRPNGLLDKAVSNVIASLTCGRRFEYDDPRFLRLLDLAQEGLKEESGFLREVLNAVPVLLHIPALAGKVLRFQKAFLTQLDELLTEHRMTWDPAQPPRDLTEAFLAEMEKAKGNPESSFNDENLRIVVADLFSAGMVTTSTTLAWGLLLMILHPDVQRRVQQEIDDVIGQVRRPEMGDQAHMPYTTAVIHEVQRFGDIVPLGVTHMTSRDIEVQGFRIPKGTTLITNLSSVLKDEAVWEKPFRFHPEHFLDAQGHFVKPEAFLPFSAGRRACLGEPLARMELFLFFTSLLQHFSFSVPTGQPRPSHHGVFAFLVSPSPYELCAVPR

Mus musculus [14] = experiment: Anti-VaD activity against UCCAO-induced spatial memory deficient C57BL/6J mouse model assessed as improvement in spatial learning and memory by measuring increase in latency time at 3 mg/kg, po administered for 21 days by passive avoidance test; format: functional, organism-based; details: time 21.0 day
[15] = Protein binding in human plasma; format: ADME, cell-free; details: read-out: PPB (converted)
Cytochrome P450 1A2 = target: T2, Cytochrome P450 1A2 (Homo sapiens, UniProt P05177); experiment: Inhibition of CYP1A2 in human liver microsomes in presence of NADPH; format: ADME
T2 sequence (P05177 whole entry): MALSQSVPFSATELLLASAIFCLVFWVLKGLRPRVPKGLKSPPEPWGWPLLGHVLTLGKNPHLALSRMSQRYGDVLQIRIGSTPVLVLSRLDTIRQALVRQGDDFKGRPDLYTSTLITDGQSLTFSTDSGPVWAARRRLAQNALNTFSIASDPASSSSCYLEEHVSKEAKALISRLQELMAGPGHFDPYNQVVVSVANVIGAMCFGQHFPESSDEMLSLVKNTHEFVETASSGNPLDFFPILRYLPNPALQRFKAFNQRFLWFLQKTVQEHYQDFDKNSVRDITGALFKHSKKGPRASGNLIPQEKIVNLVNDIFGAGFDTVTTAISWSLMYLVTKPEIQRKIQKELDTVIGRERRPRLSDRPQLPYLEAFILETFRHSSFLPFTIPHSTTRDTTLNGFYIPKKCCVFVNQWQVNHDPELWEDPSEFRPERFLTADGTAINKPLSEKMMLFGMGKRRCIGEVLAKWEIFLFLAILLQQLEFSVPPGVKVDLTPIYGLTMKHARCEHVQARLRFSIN

[16] = AUC (0 to infinity) in Sprague-Dawley rat at 2.5 mg/kg, iv measured upto 24 hrs by LC-MS/MS analysis; format: ADME, organism-based; parameters: route intravenous, dose 2.5 mg/kg, time <=24; details: in vivo
[17] = target: Voltage-gated inwardly rectifying potassium channel KCNH2 (Homo sapiens, UniProt Q12809); experiment: Inhibition of human ERG expressed in CHO cells by patch clamp method; format: cell-based
Mus musculus [18] = experiment: Anti-VaD activity against UCCAO-induced spatial memory deficient C57BL/6J mouse model assessed as improvement in spatial learning and memory by measuring decrease in error rate at 3 mg/kg, po administered for 21 days by passive avoidance test; format: functional, organism-based; details: time 21.0 day
[19] = MRT (0 to t) in Sprague-Dawley rat at 2.5 mg/kg, iv measured upto 24 hrs by LC-MS/MS analysis; format: ADME, organism-based; details: in vivo
[20] = Inhibition of PDE5A1 (535-860 residues) (unknown origin) expressed in Escherichia coli BL21 using [3H]-cAMP substrate incubated for 15 mins by liquid scintillation counting method; parameters: species or system Homo sapiens
[21] = target: cGMP-inhibited 3',5'-cyclic phosphodiesterase 3A (Homo sapiens, UniProt Q14432); experiment: Inhibition of PDE3A (679-1087 residues) (unknown origin) expressed in Escherichia coli BL21 using [3H]-cAMP substrate incubated for 15 mins by liquid scintillation counting method
Sequence of cGMP-inhibited 3',5'-cyclic phosphodiesterase 3A (Q14432 whole entry, the tested form may be a part): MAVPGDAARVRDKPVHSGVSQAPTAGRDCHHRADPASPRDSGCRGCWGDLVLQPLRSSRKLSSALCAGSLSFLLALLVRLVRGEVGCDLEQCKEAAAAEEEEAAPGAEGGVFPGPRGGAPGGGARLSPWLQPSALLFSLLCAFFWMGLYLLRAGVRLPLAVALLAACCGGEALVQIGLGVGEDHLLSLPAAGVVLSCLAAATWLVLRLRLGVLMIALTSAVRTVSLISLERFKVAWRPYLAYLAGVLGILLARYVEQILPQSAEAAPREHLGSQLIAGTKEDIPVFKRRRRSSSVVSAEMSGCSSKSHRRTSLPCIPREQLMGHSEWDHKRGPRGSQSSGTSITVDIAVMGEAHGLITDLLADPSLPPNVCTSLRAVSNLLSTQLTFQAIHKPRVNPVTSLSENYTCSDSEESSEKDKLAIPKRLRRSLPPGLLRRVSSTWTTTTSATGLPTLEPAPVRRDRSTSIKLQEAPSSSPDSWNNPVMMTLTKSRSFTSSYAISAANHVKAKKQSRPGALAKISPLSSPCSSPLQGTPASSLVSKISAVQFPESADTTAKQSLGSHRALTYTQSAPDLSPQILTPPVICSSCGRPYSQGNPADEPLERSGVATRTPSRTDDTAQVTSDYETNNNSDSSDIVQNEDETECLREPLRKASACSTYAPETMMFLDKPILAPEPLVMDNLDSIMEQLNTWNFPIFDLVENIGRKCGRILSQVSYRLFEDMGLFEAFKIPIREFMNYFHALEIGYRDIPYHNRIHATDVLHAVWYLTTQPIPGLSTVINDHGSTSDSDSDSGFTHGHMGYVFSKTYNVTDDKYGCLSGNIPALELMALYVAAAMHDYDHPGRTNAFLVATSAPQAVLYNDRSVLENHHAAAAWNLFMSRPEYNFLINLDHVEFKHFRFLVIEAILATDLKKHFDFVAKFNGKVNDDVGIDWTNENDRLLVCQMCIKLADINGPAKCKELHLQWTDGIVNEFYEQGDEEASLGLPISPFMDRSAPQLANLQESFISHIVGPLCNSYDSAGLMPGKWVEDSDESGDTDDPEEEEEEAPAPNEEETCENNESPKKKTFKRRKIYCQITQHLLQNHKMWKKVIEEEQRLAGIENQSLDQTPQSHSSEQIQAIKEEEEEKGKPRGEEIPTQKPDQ

[22] = Aqueous solubility of compound at pH 7.3 by HPLC analysis; format: physicochemical; details: aqueous medium
[23] = MRT (0 to t) in Sprague-Dawley rat at 10 mg/kg, po measured upto 24 hrs by LC-MS/MS analysis; format: ADME, organism-based; details: in vivo
Mus musculus [24] = experiment: Anti-VaD activity against UCCAO-induced spatial memory deficient C57BL/6J mouse model assessed as improvement in spatial learning and memory by measuring reduction in escape latency at 3 mg/kg, po administered for 21 days by Morris water maze test; format: functional, organism-based; details: time 21.0 day
[25] = target: Dual 3',5'-cyclic-AMP and -GMP phosphodiesterase 11A (Homo sapiens, UniProt Q9HCR9); experiment: Inhibition of PDE11A (588-911 residues) (unknown origin) expressed in Escherichia coli BL21 using [3H]-cAMP substrate incubated for 15 mins by liquid scintillation counting method
Sequence of Dual 3',5'-cyclic-AMP and -GMP phosphodiesterase 11A (Q9HCR9 whole entry, the tested form may be a part): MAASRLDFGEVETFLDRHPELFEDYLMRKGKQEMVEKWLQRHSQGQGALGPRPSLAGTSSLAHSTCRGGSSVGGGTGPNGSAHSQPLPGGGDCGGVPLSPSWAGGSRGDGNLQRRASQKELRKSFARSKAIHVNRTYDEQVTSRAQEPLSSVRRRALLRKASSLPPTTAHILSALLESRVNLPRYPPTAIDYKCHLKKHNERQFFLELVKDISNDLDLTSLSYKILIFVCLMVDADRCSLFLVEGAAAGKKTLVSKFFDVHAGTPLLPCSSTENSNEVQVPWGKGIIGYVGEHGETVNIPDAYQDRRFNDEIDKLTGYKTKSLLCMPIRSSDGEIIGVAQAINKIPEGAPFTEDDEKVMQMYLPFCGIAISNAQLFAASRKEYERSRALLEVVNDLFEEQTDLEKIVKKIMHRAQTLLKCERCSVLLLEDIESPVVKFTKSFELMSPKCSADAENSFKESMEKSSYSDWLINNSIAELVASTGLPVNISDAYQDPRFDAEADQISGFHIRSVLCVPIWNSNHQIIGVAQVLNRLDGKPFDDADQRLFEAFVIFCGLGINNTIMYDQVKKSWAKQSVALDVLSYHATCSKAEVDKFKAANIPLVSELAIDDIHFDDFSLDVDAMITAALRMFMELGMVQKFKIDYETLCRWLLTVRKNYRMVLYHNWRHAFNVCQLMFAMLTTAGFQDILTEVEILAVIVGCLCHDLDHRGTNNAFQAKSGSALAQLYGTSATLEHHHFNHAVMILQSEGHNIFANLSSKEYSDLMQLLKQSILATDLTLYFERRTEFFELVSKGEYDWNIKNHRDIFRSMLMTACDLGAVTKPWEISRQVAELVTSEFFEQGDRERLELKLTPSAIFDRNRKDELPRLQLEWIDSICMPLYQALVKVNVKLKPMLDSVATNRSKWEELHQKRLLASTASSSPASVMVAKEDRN

[26] = Dissociation constant, pKa of the compound; format: physicochemical
Mus musculus [27] = experiment: Anti-VaD activity against UCCAO-induced spatial memory deficient C57BL/6J mouse model assessed as improvement in spatial learning and memory by measuring increased the frequency of platform site crossing at 3 mg/kg, po administered for 21 days by Morris water maze test; format: functional, organism-based; details: time 21.0 day
[28] = AUC (0 to t) in Sprague-Dawley rat at 10 mg/kg, po measured upto 24 hrs by LC-MS/MS analysis; format: ADME, organism-based; parameters: route oral, dose 10 mg/kg, time <=24; details: in vivo
[29] = Effective permeability of compound by PAMPA-BBB assay; format: ADME; details: read-out: permeability
[30] = Tmax in Sprague-Dawley rat at 2.5 mg/kg, iv measured upto 24 hrs by LC-MS/MS analysis; format: ADME, organism-based; details: in vivo
[31] = AUC (0 to infinity) in Sprague-Dawley rat at 10 mg/kg, po measured upto 24 hrs by LC-MS/MS analysis; format: ADME, organism-based; parameters: route oral, dose 10 mg/kg, time <=24; details: in vivo
[32] = target: T1, High affinity cAMP-specific and IBMX-insensitive 3',5'-cyclic phosphodiesterase 8A; experiment: Inhibition of PDE8A1 (480 to 820 residues) (unknown origin) expressed in Escherichia coli BL21 using [3H]-cAMP substrate incubated for 15 mins by liquid scintillation counting method
Mus musculus [33] = experiment: Anti-VaD activity against UCCAO-induced spatial memory deficient C57BL/6J mouse model assessed as improvement in spatial learning and memory by measuring increase in latency time at 1 mg/kg, po administered for 21 days by passive avoidance test; format: functional, organism-based; details: time 21.0 day
Mus musculus [34] = experiment: Anti-VaD activity against UCCAO-induced spatial memory deficient C57BL/6J mouse model assessed as improvement in spatial learning and memory by measuring decrease in error rate at 1 mg/kg, po administered for 21 days by passive avoidance test; format: functional, organism-based; details: time 21.0 day
Mus musculus [35] = experiment: Anti-VaD activity against UCCAO-induced spatial memory deficient C57BL/6J mouse model assessed as improvement in spatial learning and memory by measuring increased the residence time in the platform area at 1 mg/kg, po administered for 21 days by Morris water maze test; format: functional, organism-based; details: time 21.0 day
Mus musculus [36] = experiment: Anti-VaD activity against UCCAO-induced spatial memory deficient C57BL/6J mouse model assessed as improvement in spatial learning and memory by measuring increased the frequency of platform site crossing at 1 mg/kg, po administered for 21 days by Morris water maze test; format: functional, organism-based; details: time 21.0 day
Mus musculus [37] = experiment: Anti-VaD activity against UCCAO-induced spatial memory deficient C57BL/6J mouse model assessed as improvement in spatial learning and memory by measuring reduction in escape latency at 1 mg/kg, po administered for 21 days by Morris water maze test; format: functional, organism-based; details: time 21.0 day

Structure (SMILES): Nc1nc(Cl)nc2c1ncn2Cc1cc(OCC(F)F)ccn1
IC50 [32]: 0.36 µM

Structure (SMILES): COc1cc2c(cc1OC)C(=O)C(CC1CCN(Cc3ccccc3)CC1)C2 (stereo not drawn)
Activity (Mus musculus [33]): Active
Activity (Mus musculus [34]): Active
Activity (Mus musculus [35]): Active
Activity (Mus musculus [36]): Active
Activity (Mus musculus [37]): Active

Structure (SMILES): Nc1nc(Cl)nc2c1ncn2Cc1ccccn1
inhibition [1]: 24%

Further lines, with some results ahead:

inhibition [1]: 14%
Structure (SMILES): Cc1cccc(Cn2cnc3c(N)nc(Cl)nc32)n1

Tmax [2]: 4 h
half-life [3]: 2.36 h
IC50 [4]: > 10 µM
IC50 (Cytochrome P450 2C9): > 25 µM
Cmax [5]: 1940 ng/mL
IC50 [6]: > 10 µM
Cmax [7]: 2190 ng/mL
half-life [8]: 2.82 h
bioavailability [9]: 47%
AUC(0-t) at 24 h [10]: 9410 ng·h/mL
logP [11]: 3.84
IC50 (Cytochrome P450 2C19): > 25 µM
IC50 (Cytochrome P450 3A4): > 25 µM
IC50 [13]: > 10 µM
IC50 (Cytochrome P450 2D6): > 25 µM
fraction unbound [15]: 0.22
IC50 (Cytochrome P450 1A2): > 25 µM
AUC(0-inf) [16]: 9420 ng·h/mL
MRT last at 24 h [19]: 4.48 h
IC50 [20]: > 10 µM
IC50 [21]: > 10 µM
solubility [22]: 108 µg/mL (≈ 304 µM)
MRT last at 24 h [23]: 7.2 h
IC50 [25]: > 10 µM
pKa [26]: 3.69
AUC(0-t) at 24 h [28]: 17500 ng·h/mL
Papp [29]: 6 ×10⁻⁶ cm/s
Tmax [30]: 8.4 min
AUC(0-inf) [31]: 17600 ng·h/mL
Structure (SMILES): C[C@@H](c1cc(OCC(F)F)ccn1)n1cnc2c(N)nc(Cl)nc21
Activity (Mus musculus [12]): Active
Activity (Mus musculus [14]): Active
IC50 [17]: 18 µM
Activity (Mus musculus [18]): Active
Activity (Mus musculus [24]): Active
Activity (Mus musculus [27]): Active
